Data: US9206130B2, “Quinoline derivatives as AXL kinase inhibitors” (Max-Planck-Gesellschaft zur Förderung der Wissenschaften …, priority 2008, dated 2015)
pIC50: −log10 of the molar value.

Assays:
[1] = target: T1, wild type AXL (wtAXL) receptor tyrosine kinase (Homo sapiens, UniProt P30530); test: NIH-3T3-AXL cellular tyrosine kinase assay (inhibition of AXL phosphorylation); type: cell-based; conditions: AXL phosphorylation in NIH-3T3-AXL (clone 22) cells, serum-depleted, 2 h with compound, immunoprecipitation / anti-phosphotyrosine blot
T1 construct: WtAXL cDNA was cloned into vector pLXSN(ESK) and transfected into Phoenix E packaging cells; expressed in transfected cells; host or cells: NIH3T3 N7 mouse fibroblasts, retrovirally infected (clone 22)
T1 sequence (P30530 26-894): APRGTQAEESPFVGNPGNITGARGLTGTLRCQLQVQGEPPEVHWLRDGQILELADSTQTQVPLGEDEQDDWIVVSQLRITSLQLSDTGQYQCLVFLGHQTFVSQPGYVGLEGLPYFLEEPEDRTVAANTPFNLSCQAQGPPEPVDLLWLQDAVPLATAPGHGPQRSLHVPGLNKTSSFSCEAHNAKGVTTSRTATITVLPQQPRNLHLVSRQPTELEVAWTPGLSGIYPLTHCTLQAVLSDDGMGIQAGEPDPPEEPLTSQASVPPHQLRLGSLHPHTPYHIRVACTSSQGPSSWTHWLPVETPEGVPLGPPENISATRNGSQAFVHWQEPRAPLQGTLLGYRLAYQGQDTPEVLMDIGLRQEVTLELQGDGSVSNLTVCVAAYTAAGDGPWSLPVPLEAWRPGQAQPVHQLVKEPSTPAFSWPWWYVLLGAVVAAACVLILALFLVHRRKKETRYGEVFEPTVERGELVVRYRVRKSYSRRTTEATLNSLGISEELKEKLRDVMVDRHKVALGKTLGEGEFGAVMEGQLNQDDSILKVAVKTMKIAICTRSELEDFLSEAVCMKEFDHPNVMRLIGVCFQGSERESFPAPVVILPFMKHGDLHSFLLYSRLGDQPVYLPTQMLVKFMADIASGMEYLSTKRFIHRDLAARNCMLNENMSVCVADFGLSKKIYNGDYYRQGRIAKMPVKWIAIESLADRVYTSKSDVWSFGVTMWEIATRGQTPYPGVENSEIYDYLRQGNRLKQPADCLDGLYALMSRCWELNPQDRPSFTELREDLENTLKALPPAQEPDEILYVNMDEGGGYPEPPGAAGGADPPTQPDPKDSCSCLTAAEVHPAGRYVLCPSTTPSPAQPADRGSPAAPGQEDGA
Method in brief: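 Compound inhibition of AXL autophosphorylation was read by 4G10 immunoblot after anti-AXL immunoprecipitation from lysates. Cells: NIH3T3 lines stably carrying retroviral wild-type human AXL, treated 2 h with compound dilution series.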

Structure (SMILES) | pIC50 [1] | melting point
COc1cc2nccc(Oc3ccc(NS(=O)(=O)c4cc(Cl)cc(Cl)c4OC)cc3F)c2cc1OC [Example A106, 3,5-Dichloro-N-[4-(6,7-dimethoxy-quinolin-4-yloxy)-3-fluoro-phenyl]-2-methoxy-benzenesulfonamide] | 6.12 | 155 to 158 °C
COc1cc2nccc(Oc3ccc(NS(=O)(=O)c4ccc(-c5ccccc5)cc4)cc3F)c2cc1OC [Example A107, Biphenyl-4-sulfonic acid [4-(6,7-dimethoxy-quinolin-4-yloxy)-3-fluoro-phenyl]-amide] | < 5.00 | 167 to 171 °C
COc1cc2nccc(Oc3ccc(NS(=O)(=O)c4csc5ccccc45)cc3F)c2cc1OC [Example A108, Benzo[b]thiophene-3-sulfonic acid [4-(6,7-dimethoxy-quinolin-4-yloxy)-3-fluoro-phenyl]-amide] | < 6.00 | 191 to 193 °C
COc1cc(S(=O)(=O)Nc2ccc(Oc3ccnc4cc(OC)c(OC)cc34)c(F)c2)ccc1F [Example A109, N-[4-(6,7-Dimethoxy-quinolin-4-yloxy)-3-fluoro-phenyl]-4-fluoro-3-methoxy-benzenesulfonamide] | < 6.00 | 202 to 204 °C
COc1cc2nccc(Oc3ccc(NS(=O)(=O)c4ccc(Cl)cc4F)cc3F)c2cc1OC [Example A110, 4-Chloro-N-[4-(6,7-dimethoxy-quinolin-4-yloxy)-3-fluoro-phenyl]-2-fluoro-benzenesulfonamide] | 5.93 | 99 to 101 °C
COc1cc2nccc(Oc3ccc(NS(=O)(=O)c4cc(Cl)cc(Cl)c4OC)c(C)c3)c2cc1OC [Example A111, 3,5-Dichloro-N-[4-(6,7-dimethoxy-quinolin-4-yloxy)-2-methyl-phenyl]-2-methoxy-benzenesulfonamide] | < 5.52 | 159 to 162 °C
COc1cc2nccc(Oc3ccc(NS(=O)(=O)c4ccccc4OC(F)(F)F)c(C)c3)c2cc1OC [Example A112, N-[4-(6,7-Dimethoxy-quinolin-4-yloxy)-2-methyl-phenyl]-2-trifluoromethoxy-benzenesulfonamide] | < 5.52 | 230 to 232 °C
COc1cc2nccc(Oc3ccc(NS(=O)(=O)c4ccccc4C(F)(F)F)c(C)c3)c2cc1OC [Example A113, N-[4-(6,7-Dimethoxy-quinolin-4-yloxy)-2-methyl-phenyl]-2-trifluoromethyl-benzenesulfonamide] | < 5.52 | 254 to 257 °C
COc1cc2nccc(Oc3ccc(NS(=O)(=O)c4ccccc4OC(F)(F)F)cc3)c2cc1OC [Example A114, N-[4-(6,7-Dimethoxy-quinolin-4-yloxy)-phenyl]-2-trifluoromethoxy-benzenesulfonamide] | 6.33 | 222 to 223 °C
COc1cc2nccc(Oc3ccc(NS(=O)(=O)c4cccc(Oc5ccccc5)c4)cc3)c2cc1OC [Example A115, N-[4-(6,7-Dimethoxy-quinolin-4-yloxy)-phenyl]-3-phenoxy-benzenesulfonamide] | 5.90 | 172 to 174 °C
COc1cc(S(=O)(=O)Nc2ccc(Oc3ccnc4cc(OC)c(OC)cc34)cc2)ccc1F [Example A116, N-[4-(6,7-Dimethoxy-quinolin-4-yloxy)-phenyl]-4-fluoro-3-methoxy-benzenesulfonamide] | < 5.52 | 222 to 224 °C
COc1cc2nccc(Oc3ccc(NS(=O)(=O)c4ccc(Br)c(Cl)c4)cc3)c2cc1OC [Example A117, 4-Bromo-3-chloro-N-[4-(6,7-dimethoxy-quinolin-4-yloxy)-phenyl]-benzenesulfonamide] | < 5.00 | 232 to 234 °C
COc1cc2nccc(Oc3ccc(NS(=O)(=O)c4cc(F)ccc4F)cc3)c2cc1OC [Example A118, N-[4-(6,7-Dimethoxy-quinolin-4-yloxy)-phenyl]-2,5-difluoro-benzenesulfonamide] | 6.27 | 260 to 263 °C
COc1cc2nccc(Oc3ccc(NS(=O)(=O)c4ccccc4OC(F)(F)F)cc3OC)c2cc1OC [Example A119, N-[4-(6,7-Dimethoxy-quinolin-4-yloxy)-3-methoxy-phenyl]-2-trifluoromethoxy-benzenesulfonamide] | < 5.52 | 211 to 212 °C
COc1cc2nccc(Oc3ccc(NS(=O)(=O)c4cccc(Oc5ccccc5)c4)cc3OC)c2cc1OC [Example A120, N-[4-(6,7-Dimethoxy-quinolin-4-yloxy)-3-methoxy-phenyl]-3-phenoxy-benzenesulfonamide] | < 5.00 | 106 to 107 °C
COc1cc(S(=O)(=O)Nc2ccc(Oc3ccnc4cc(OC)c(OC)cc34)c(OC)c2)ccc1F [Example A121, N-[4-(6,7-Dimethoxy-quinolin-4-yloxy)-3-methoxy-phenyl]-4-fluoro-3-methoxy-benzenesulfonamide] | < 5.00 | 109 to 110 °C
COc1cc2nccc(Oc3ccc(NS(=O)(=O)c4ccc(Br)c(Cl)c4)cc3OC)c2cc1OC [Example A122, 4-Bromo-3-chloro-N-[4-(6,7-dimethoxy-quinolin-4-yloxy)-3-methoxy-phenyl]-benzenesulfonamide] | < 5.00 | 110 to 113 °C
COc1cc2nccc(Oc3ccc(NS(=O)(=O)c4ccc(Br)c(Cl)c4)cc3F)c2cc1OC [Example A124, 4-Bromo-3-chloro-N-[4-(6,7-dimethoxy-quinolin-4-yloxy)-3-fluoro-phenyl]-benzenesulfonamide] | < 5.52 | 144 to 147 °C
COc1cc2nccc(Oc3ccc(NS(=O)(=O)c4ccccc4OC(F)(F)F)cc3F)c2cc1OC [Example A126, N-[4-(6,7-Dimethoxy-quinolin-4-yloxy)-3-fluoro-phenyl]-2-trifluoromethoxy-benzenesulfonamide] | 6.89 | 203 to 204 °C
COc1cc2nccc(Oc3ccc(NS(=O)(=O)c4cc(Cl)cc(Cl)c4OC)cc3C)c2cc1OC [Example A127, 3,5-Dichloro-N-[4-(6,7-dimethoxy-quinolin-4-yloxy)-3-methyl-phenyl]-2-methoxy-benzenesulfonamide] | < 5.52 | 206 to 208 °C
COc1cc2nccc(Oc3ccc(NS(=O)(=O)c4ccccc4OC(F)(F)F)cc3C)c2cc1OC [Example A129, N-[4-(6,7-Dimethoxy-quinolin-4-yloxy)-3-methyl-phenyl]-2-trifluoromethoxy-benzenesulfonamide] | < 5.52 | 207 to 209 °C
COc1cc2nccc(Oc3ccc(NS(=O)(=O)c4ccc(OC)c5ccccc45)cc3C)c2cc1OC [Example A130, 4-Methoxy-naphthalene-1-sulfonic acid [4-(6,7-dimethoxy-quinolin-4-yloxy)-3-methyl-phenyl]-amide] | < 5.00 | 233 to 235 °C
COc1cc2nccc(Oc3ccc(NS(=O)(=O)c4cc(F)ccc4F)cc3C)c2cc1OC [Example A131, N-[4-(6,7-Dimethoxy-quinolin-4-yloxy)-3-methyl-phenyl]-2,5-difluoro-benzenesulfonamide] | 5.77 | 239 to 240 °C
COc1cc2nccc(Oc3ccc(NS(=O)(=O)c4cccc(-c5ncccn5)c4)cc3C)c2cc1OC [Example A132, N-[4-(6,7-Dimethoxy-quinolin-4-yloxy)-3-methyl-phenyl]-3-pyrimidin-2-yl-benzenesulfonamide] | < 5.00 | 188 to 190 °C
COc1cc2nccc(Oc3ccc(NS(=O)(=O)c4ccc(OC)c5ccccc45)cc3)c2cc1OC [Example A133, 4-Methoxy-naphthalene-1-sulfonic acid [4-(6,7-dimethoxy-quinolin-4-yloxy)-phenyl]-amide] | < 5.00 | 240 to 242 °C
COc1cc2nccc(Oc3ccc(NS(=O)(=O)c4ccc(Cl)cc4F)cc3)c2cc1OC [Example A134, 4-Chloro-N-[4-(6,7-dimethoxy-quinolin-4-yloxy)-phenyl]-2-fluoro-benzenesulfonamide] | < 6.00 | 218 to 220 °C
COc1cc2nccc(Oc3ccc(NS(=O)(=O)c4ccc(OC)c5ccccc45)cc3F)c2cc1OC [Example A135, 4-Methoxy-naphthalene-1-sulfonic acid [4-(6,7-dimethoxy-quinolin-4-yloxy)-3-fluoro-phenyl]-amide] | 6.09 | 145 to 147 °C
